The values below come from ChEMBL document CHEMBL1128813, “Inhibitors of glucosidases with related structures and inverse specificity” (Bioorg Med Chem Lett, 1995).

The nature of assay [1]: Inhibitory activity against Beta-glucosidase from Almond. Set-up: species or system Prunus dulcis.
Assay [2] is described as follows: Inhibitory activity against Beta-glucosidase from Yeast. On the set-up: species or system Saccharomyces cerevisiae.
Assay [3] in a line: Inhibitory activity against Beta-glucosidase from E-coli. On the set-up: species or system Escherichia coli.

What is called pKi is −log10 of the Ki, conventionally taken in molar units. Low readings indicate a high Ki, high ones a low Ki.

pKi: −log10 of the molar value.

Take `OCC1O/C(=N\O)C(O)C(O)C1O` (centres undefined): the pKi in assay [1] was 4.00.
Take `O=[N+]([O-])c1ccc(O/N=C2\OC(CO)C(O)C(O)C2O)c([N+](=O)[O-])c1` (centres undefined): the pKi was 4.10 in assay [1], 5.60 in assay [2] and 3.92 in assay [3].
